Kd and IC50 data for five compounds are collected here from ChEMBL document CHEMBL1145285, “Design and crystal structures of protein kinase B-selective inhibitors in complex with protein kinase A and mutants” (J Med Chem, 2005).

The target in assay [1] is cAMP-dependent protein kinase catalytic subunit alpha (Bos taurus) (UniProt P00517). In words: Binding constant for protein kinase AB3 (3 PKB amino acid substitutions).
Assay [2] in a line: Inhibition of protein kinase AB (PKB amino acid substitutions). The class given is protein assay.
The nature of assay [3]: Inhibition protein kinase A.
The target of assay [4] is cAMP-dependent protein kinase catalytic subunit alpha (Bos taurus) (UniProt P00517). In words: Binding constant for protein kinase AB5 (5 PKB amino acid substitutions).

In general, Kd refers to a measure of binding affinity in units of concentration. A word on the IC50: it is the concentration at which inhibition is half-maximal. A lower IC50 goes with inhibition by little substance.

Regarding `Cl.Cl.Cl.O=C(N[C@@H]1CCCNC[C@H]1NC(=O)c1ccncc1)c1ccc(C(=O)c2cc(N3CCCCC3)ccc2O)cc1`, the Kd in assay [1] came out at 0.193 µM; in assay [4], 0.009 µM. In addition, the IC50 in assay [2] stood at 0.02 µM; in assay [3], 0.4 µM.
For `CC1(C)CCCNC1c1ccc(O)c(C(=O)c2ccc(C(=O)N[C@@H]3CCCNC[C@H]3NC(=O)c3ccncc3)cc2)c1F.Cl.Cl.Cl` (stereo partly specified), in that order: 3.77 µM, 0.26 µM, 0.75 µM and 2.4 µM.
Regarding `CN(C)c1ccc(O)c(C(=O)c2ccc(C(=O)N[C@@H]3CCCNC[C@H]3NC(=O)c3ccncc3)cc2)c1.Cl.Cl.Cl`, the dissociation constant Kd in assay [1] is 0.041 µM. In addition, the values for the IC50 in assay [2] and in assay [3] were 0.023 µM and 0.03 µM, respectively.
The compound `CC1(C)CCN(c2ccc(O)c(C(=O)c3ccc(C(=O)N[C@@H]4CCCNC[C@H]4NC(=O)c4ccncc4)cc3)c2)CC1.Cl.Cl.Cl` showed a concentration for half-maximal inhibition (IC50) in assay [2] of 0.04 µM.
Regarding `CC1(C)CCCN(c2ccc(O)c(C(=O)c3ccc(C(=O)N[C@@H]4CCCNC[C@H]4NC(=O)c4ccncc4)cc3)c2)C1.Cl.Cl.Cl`, the Kd is 0.077 µM in assay [1] and 0.008 µM in assay [4]. Moreover, the results for the IC50 in assay [2] and in assay [3] were 0.02 µM and 1.9 µM, respectively.
